Source: patent US20200222410A1, “NUCLEOCYTOPLASMIC REGULATOR OF AUTOPHAGY-ASSOCIATED TRANSCRIPTION FACTORS” (BROWN UNIVERSITY, priority 2017, published 2020)
“And” between values parts separate entries of the source, which are not always exact repeats. Identical values can stand only once. “Also recorded” adds a separate entry of the source.

How the values were obtained:
TFEB = assay: TFEB-GFP nuclear localization in HeLa cells; format: cell-based, human; conditions: TFEB-GFP-expressing HeLa cells, 1 μM, 6 hours
Experimental: Cell culture: HeLa cells (ATCC) and HeLa cells expressing TFEB-GFP (S. Ferguson lab) were grown in 6-well plates on a coverslip for 24 hours in DMEM High Glucose (Genesee Scientific) containing 2 mM L-Glutamine, 1% Penicillin-Strep and 10% Fetal Bovine Serum (GenClone). For RNAi experiments, both HeLa cell lines were transfected with Silencer Select siRNA against XPO1 (5 nM) or TFEB (10 nM) or negative control siRNA #2 (Thermo Fisher Scientific) with RNAi Max (Thermo Fisher Scientific) and Opti-MEM (Gibco) for 48 hours. Cells were incubated for another 6 hours with DMSO 0.1%, Torin 1 […], KPT-330, KPT-276, KPT-185 or KPT-335 (1 μM) (Selleckchem). For Lysotracker analysis, cells on coverslips were previously grown with vehicle or compounds (including GSK-3β inhibitor VIII or Leptomycin b (10 nM) for 6 hours followed by a one hour incubation with 100 nM of Lysotracker Red DND-99 (Thermo Fisher Scientific) and live cells were imaged. Coverslips were mounted for imaging onto slides and imaged with a Zeiss Axiovert 200M Fluorescent Microscope. Lysotracker signal was quantified by measuring signal intensity over background of individual cells using ImageJ. For imaging TFEB-GFP signal, cells were fixed in methanol. Nuclear localization was quantified by counting cells that had higher GFP intensity in the nucleus compared to the cytoplasm measured using ImageJ.

HLH-30 = assay: HLH-30::GFP nuclear localization in nematodes (fluorescent microscopy); format: in vivo, C. elegans
Experimental: The nematode C. elegans is an art-recognized system to identify genetic and pharmacological modifiers of various cellular processes. As such, an unbiased genome-wide RNAi screen for genetic modifiers of the activity of HLH-30/TFEB was performed (FIG. 1B). Specifically, enhancers of HLH-30 nuclear localization were searched for by following the distribution of HLH-30 fused to GFP.
HLH-30-GFP-expressing nematodes were fed HT115 E. coli bacteria transformed with a plasmid containing the L4440 backbone and a portion of the cDNA sequence complementary to the coding sequence of the xpo-1 gene. Nuclear enrichment was measured by fluorescent microscopy after animals were treated from eggs to day 1 of adulthood. The RNAi was based on the cosmid sequence ZK742.1 of the C. elegans genome. The sequence of the RNAi used is:
Fluorescent microscopy imaging: Transgenic worms were mounted on a 2% agarose pad with 0.1% sodium azide and imaged using a Zeiss Discovery V20 fluorescent microscope.
Animals were fed OP50 E. coli with 0.2% of DMSO (vehicle control) or 0.2% DMSO with KPT-330 at 0.2 mM. Nuclear localization of the HLH-30-GFP reporter and survival was measured.

C. elegans [1] = assay: Lifespan analysis of C. elegans; format: in vivo; conditions: for lifespan of treated animals compared to vehicle-treated controls: C. elegans wild-type; for % Difference in mean lifespan vs vehicle control / Drug treatment Mean Lifespan: N2 wild-type; for Drug treatment Mean Lifespan: 20° C.
Experimental: Lifespan analysis: Worms were synchronized by bleaching and eggs were grown on OP50 E. coli during development. Day 1 adults were transferred onto corresponding RNAi plates and kept at 20° C. Mantel-Cox log rank statistical analyses were calculated using Stata 13.0.

mCherry::GFP::LGG-1 = assay: Autophagy analysis with tandem reporter mCherry::GFP::LGG-1 (autophagosome and autolysosome formation); format: in vivo, C. elegans; conditions: 50 or 100 μM, visualized after 48 hours
Experimental: Autophagy analysis: Worms expressing the tandem reporter GFP-mCherry-LGG-1 (Chang et al., (2017). Spatiotemporal regulation of autophagy during Caenorhabditis elegans aging. eLife 6) were treated from L4/day 1 of adulthood and imaged using an LSM 800 Zeiss Confocal Laser Scanning Microscope as previously described (Chang et al., (2017). Spatiotemporal regulation of autophagy during Caenorhabditis elegans aging. eLife 6). To functionally assess the effect of genetically or pharmacologically inhibiting xpo-1 on the autophagic pathway, autophagic flux (i.e. fusion of autophagosome to lysosome) was measured in C. elegans. Several fluorescent reporters of autophagy proteins (including LGG-1/LC3, SQST-1/P62) have been designed to observe and quantify autophagic flux. […] These animals were used to determine the effect of silencing (RNAi) xpo-1 on autophagy using fluorescent microscopy. The accumulation of unique red punctae represents active autolysosome formation, indicative of activated autophagy.

dsodH71Y flies = assay: Lifespan analysis of ALS model in flies (dsodH71Y); format: in vivo, D. melanogaster; conditions: for Drug treatment Mean Lifespan: H71Y Sod-1 (dsod) flies, 25° C.; for % Difference in mean lifespan vs vehicle control: H71Y flies
Experimental: l Lifespan analysis in Drosophila: Measurement of lifespan (25° C.) in dsodH71Y was performed as previously described in the art (Sahin et al., 2017, Human SOD1 ALS Mutations in a Drosophila Knock-In Model Cause Severe Phenotypes and Reveal Dosage-Sensitive Gain- and Loss-of-Function Components. Genetics 205, 707-723). The software Stata 13.0 was used to perform Mantel-Cox log rank statistical analyses.

[2] = tested on: polyQ-containing protein aggregates; assay: polyQ aggregate formation (Q35::GFP muscle, Q40::YFP intestine); format: in vivo, C. elegans; conditions: day 5 animals, 100 μM
Experimental: (§1) Proteostasis analyses: Heat shock analyses were performed at 37° C. and scoring survival every hour. Aggregation was visualized by fluorescent microscopy using strains expressing Q35::GFP in muscle (AM140) (Morley et al., 2002, The threshold for polyglutamine-expansion protein aggregation and cellular toxicity is dynamic and influenced by aging in Caenorhabditis elegans. Proc Natl Acad Sci USA 99, 10417-10422) or Q40::YFP in intestine (GF78) (Mohri-Shiomi and Garsin, (2008) Insulin signaling and the heat shock response modulate protein homeostasis in the Caenorhabditis elegans intestine during infection. J Biol Chem 283, 194-201). Aggregate clearance was assayed with a strain (GMC101) (McColl et al., (2012). Utility of an improved model of amyloid-beta (Abeta(1)(−) (4)(2)) toxicity in Caenorhabditis elegans for drug screening for Alzheimer's disease. Mol Neurodegener 7, 57). […]) inducing expression of human Aβ42 at 25° C. Following a 5-day RNAi feeding, paralysis was assayed after 48 hours at 25° C.

C. elegans [3] = assay: Heat stress survival assay (37° C.); format: in vivo; conditions: 100 μM
Experimental: as §1

Structure (SMILES): COc1cc(-c2ncn(/C=C\C(=O)OC(C)C)n2)cc(C(F)(F)F)c1 [KPT-185]
- nuclear localization of TFEB (TFEB): marked increase in nuclear localization of TFEB

Structure (SMILES): O=C(/C=C\n1cnc(-c2cc(C(F)(F)F)cc(C(F)(F)F)c2)n1)N1CC(F)(F)C1 [KPT-276]
- nuclear enrichment of HLH-30 (HLH-30; 25 μM): nuclear enrichment of HLH-30
- nuclear localization of TFEB (TFEB): marked increase in nuclear localization of TFEB
- lifespan of treated animals compared to vehicle-treated controls (C. elegans [1]): lifespan extension
- % Difference in mean lifespan vs vehicle control (C. elegans [1]; 25 μM): 9.4%
- Drug treatment Mean Lifespan (C. elegans [1]; 25 μM): 23.2 days

Structure (SMILES): O=C(/C=C\n1cnc(-c2cc(C(F)(F)F)cc(C(F)(F)F)c2)n1)NNc1cnccn1 [KPT-330, Selinexor]
- nuclear localization of HLH-30 (HLH-30; Day 1 adults, 25, 50 and 100 μM for 72 hours): displayed nuclear localization of HLH-30
- Nuclear localization of HLH-30::GFP (HLH-30; concentrations below 25 μM): not detected
- nuclear localization of HLH-30 (HLH-30; lower concentration (data not shown)): also led to nuclear localization of HLH-30
- nuclear localization of HLH-30 (fused to GFP) (HLH-30; nematodes grown on plates containing 2 mM): led to nuclear localization of HLH-30
- nuclear localization of TFEB (TFEB): marked increase in nuclear localization of TFEB
- Autophagy in pharynx and hypodermal seam cells (mCherry::GFP::LGG-1): enhanced
- Drug treatment Mean Lifespan (dsodH71Y flies; both sexes, 100 μM): 9.8 days and 13.5 days
- Drug treatment Mean Lifespan (dsodH71Y flies; females, 100 μM): 12 days and 16.9 days
- Drug treatment Mean Lifespan (dsodH71Y flies; males, 100 μM): 6.8 days and 6 days
- % Difference in mean lifespan vs vehicle control (dsodH71Y flies; both sexes, 100 μM): 24.0% and 18.4%
- % Difference in mean lifespan vs vehicle control (dsodH71Y flies; females, 100 μM): 26.3% and 27.1%
- overall survivorship compared to control (dsodH71Y flies; dsodH71Y flies fed 100 μM during adulthood): beneficial impact on the overall survivorship
- lifespan of females (dsodH71Y flies; dsodH71Y flies, 100 μM): extended significantly
- formation of polyQ-containing (Q40::YFP) aggregates [2]: reduction in the formation
- lifespan of treated animals compared to vehicle-treated controls (C. elegans [1]): significant lifespan extension; also recorded: significant increase in the lifespan
- % Difference in mean lifespan vs vehicle control (C. elegans [1]; 25 μM): 12.4% and 13.2%
- Drug treatment Mean Lifespan (C. elegans [1]; 25 μM): 21.7 days and 24 days
- % Difference in mean lifespan vs vehicle control (C. elegans [1]; 50 μM): 9.8% and 17%
- Drug treatment Mean Lifespan (C. elegans [1]; 50 μM): 21.2 days and 24.8 days
- % Difference in mean lifespan vs vehicle control (C. elegans [1]; 100 μM): 14% and 21.7%
- Drug treatment Mean Lifespan (C. elegans [1]; 100 μM): 22 days and 25.8 days
- resistance to heat (C. elegans [3]; day 1 to day 5 of adulthood): improved resistance to heat
- % Difference in heat stress survival vs vehicle control (C. elegans [3]; N2 wild-type, Day 5 of adulthood): 18.5% and 34.7%
- Heat Stress survival (mean, hours) (C. elegans [3]; N2 wild-type, Day 5 of adulthood after 5 days of treatment): 6.4 h and 6.2 h

Structure (SMILES): O=C(/C=C\n1cnc(-c2cc(C(F)(F)F)cc(C(F)(F)F)c2)n1)NNc1ccccn1 [KPT-335, Verdinexor]
- nuclear localization of TFEB (TFEB): marked increase in nuclear localization of TFEB
